One experiment addresses T1, KRAS_WT and SOS1 (Homo sapiens, UniProt P01116).
T1 construct: purchased
The experiment is described as follows: Inhibition of KRAS_WT/SOS1 binding (Cisbio binding kit, 665/615 ratio), Effect Embodiment C. Particulars: read-out: GTP-KRAS-WT:SOS1 IC50. The procedure:
The inhibitory ability of small molecule compounds on the binding activity of KRAS_WT and SOS1 was examined by a drug screening system based on the combination of KRAS_WT and SOS1.
(§1) Similarly, the first dilution point of the compound to be tested was its storage solution, and the solution was 3-fold diluted, with 11+0 points of dilution. Echo was used to transfer 0.2 μL gradient diluted solution of the compounds into a 384-well plate, with 2 duplicated wells for each compound, and the final concentration of DMSO was 1%. The solution was centrifuged for 1 min at 1000 rpm/min.
(§2) IC50 of the compounds was fitted by Graphpad Prism 8 nonlinear regression equation: […]
(§3) The IC50 (half inhibitory concentration) of the compound was obtained by using the following nonlinear fitting formula: […]

The next experiment has as its target T2, KRAS-G12D and SOS1 (Homo sapiens, UniProt P01116, G12D).
T2 construct: purchased
The experiment is described as follows: Inhibition of KRAS-G12D/SOS1 binding (Cisbio binding kit, 665/615 ratio), Effect Embodiment A. Particulars: read-out: GTP-KRAS-G12D:SOS1 IC50. The method, boiled down:
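Test compounds were serially diluted 3-fold from the storage solution over 11 points and dispensed in duplicate wells at 1% final DMSO.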

Another experiment has as its target T3, KRAS_G12D and cRAF (Homo sapiens, UniProt P01116, G12D).
T3 construct: purchased
Description: Inhibition of KRAS_G12D/cRAF binding (Cisbio binding kit, 665/615 ratio), Effect Embodiment B. Particulars: read-out: GTP-KRAS-G12D:CRAF IC50. The method, then:
as §1, §2, §3

The values below come from patent US20230365563A1, “QUINAZOLINE COMPOUND AND APPLICATION THEREOF” (SHANGHAI PHARMACEUTICALS HOLDING CO., LTD., priority 2020, published 2023).

SMILES strings stand for the structures. pIC50: −log10 of the molar value. Counter-ions that a name gives are not always drawn.

T3 sequence (P01116 1-188 isoform P01116-2 G12D): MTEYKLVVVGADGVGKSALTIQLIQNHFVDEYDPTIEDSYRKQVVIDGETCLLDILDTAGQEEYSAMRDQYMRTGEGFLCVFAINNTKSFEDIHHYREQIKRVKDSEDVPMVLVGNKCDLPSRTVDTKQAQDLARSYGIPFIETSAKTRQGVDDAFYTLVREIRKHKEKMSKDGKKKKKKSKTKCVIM
T2 sequence (P01116 1-188 isoform P01116-2 G12D): as above
T1 sequence (P01116 1-188 isoform P01116-2): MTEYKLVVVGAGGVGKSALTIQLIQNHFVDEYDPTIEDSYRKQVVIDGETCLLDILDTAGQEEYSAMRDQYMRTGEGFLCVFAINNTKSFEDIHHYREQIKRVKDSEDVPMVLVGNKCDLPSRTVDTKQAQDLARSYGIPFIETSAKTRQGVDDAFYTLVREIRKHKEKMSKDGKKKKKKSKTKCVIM

Take `CN(C)C1CN(c2nc(N3CCCNCC3)c3cc(Cl)c(-c4cc(O)cc5ccccc45)c(F)c3n2)C1` (single isomer, unassigned) [Compound 23, (S or R)-4-(6-chloro-4-(1,4-diaza-1-yl)-2-(3-(dimethylamino)azetidin-1-yl)-8-fluoroquinazolin-7-yl)naphthalen-2-ol]: the pIC50 (as a rule, the IC50 on a negative log10 scale, so that one unit is a factor of ten) on KRAS_WT and SOS1 was 4.91; on KRAS-G12D and SOS1 it was 6.02; on KRAS_G12D and cRAF, 4.65.
For `CN(C)C1CN(c2nc(N3CC4CC(C3)N4)c3cc(Cl)c(-c4cc(O)cc5ccccc45)c(F)c3n2)C1` (single isomer, unassigned) [Compound 25, 4-((7S or 7R)-4-(3,6-diazabicyclo[3.1.1]heptan-3-yl)-6-chloro-2-(3-(dimethylamino)azetidin-1-yl)-8-fluoroquinazolin-7-yl)naphthalen-2-ol] the same measures were 5.59, 6.53 and 5.36.
Taken in the same sequence, the figures for `CN(C)C1CN(c2nc(N3CCNC4CC43)c3cc(Cl)c(-c4cc(O)cc5ccccc45)c(F)c3n2)C1` (single isomer, unassigned) [Compound 28, 4-((S or R)-4-((1R,6S or 1S,6R)-2,5-diazabicyclo[4.1.0]heptan-2-yl)-6-chloro-2-(3-(dimethylamino)azetidin-1-yl)-8-fluoroquinazolin-7-yl)naphthalen-2-ol trifluoroacetate] were 4.65, 6.51 and 5.33.
As for `CN(C)C1CN(c2nc(N3CC4CCCC3CN4)c3cc(Cl)c(-c4cc(O)cc5ccccc45)c(F)c3n2)C1` (single isomer, unassigned) [Compound 37, 4-((S or R)-4-((1S,5S or 1R,5R)-6,8-diazabicyclo[3.2.2]nonan-6-yl)-6-chloro-2-(3-(dimethylamino)azetidin-1-yl)-8-fluoroquinazolin-7-yl)naphthalen-2-ol], the pIC50 was 5.99 at KRAS_WT and SOS1; 6.20 at KRAS-G12D and SOS1; 5.67 at KRAS_G12D and cRAF.
With `CN1CCC[C@H]1COc1nc(N2CC3CCC(C2)N3)c2cc(Cl)c(-c3cc(O)cc4ccccc34)c(F)c2n1` (single isomer, unassigned) [Compound 39a, (S or R)-4-(4-((1R,5S)-3,8-diazabicyclo[3.2.1]octan-3-yl)-6-chloro-8-fluoro-2-((S)-1-methylpyrrolidin-2-yl)methoxy)quinazolin-7-yl)naphthalen-2-ol], the pIC50 at KRAS_WT and SOS1 is 6.47; on KRAS-G12D and SOS1, 7.56; on KRAS_G12D and cRAF it was 7.58.
Taken in the same sequence, the figures for `CN(C)CCCOc1nc(N2C[C@H]3CC[C@@H](C2)N3)c2cc(Cl)c(-c3cc(O)cc4ccccc34)c(F)c2n1` (single isomer, unassigned) [Compound 40a, (S or R)-4-(4-((1R,5S)-3,8-diazabicyclo[3.2.1]octan-3-yl)-6-chloro-2-(3-(dimethylamino)propoxy)-8-fluoroquinazolin-7-yl)naphthalen-2-ol] were 5.98, 7.82 and 6.98.
For `Cc1cccc2cc(O)cc(-c3c(Cl)cc4c(N5CC6CCC(C5)N6)nc(N5CC(N(C)C)C5)nc4c3F)c12` (single isomer, unassigned) [Compound 47a, 4-((S or R)-4-((1R,5S)-3,8-diazabicyclo[3.2.1]octan-3-yl)-6-chloro-2-(3-(dimethylamino)azetidin-1-yl)-8-fluoroquinazolin-7-yl)-5-methylnaphthalen-2-ol], the pIC50 is 5.24 at KRAS_WT and SOS1; 6.68 on KRAS-G12D and SOS1; 6.08 on KRAS_G12D and cRAF.
With `CN(C)CCOc1nc(N2CC3CCC(C2)N3)c2cc(Cl)c(-c3cc(O)cc4ccccc34)c(F)c2n1` (single isomer, unassigned) [Compound 48a, 4-((S or R)-4-((1R,5S)-3,8-diazabicyclo[3.2.1]octan-3-yl)-6-chloro-2-(2-(dimethylamino)ethoxy)-8-fluoroquinazolin-7-yl)naphthalen-2-ol], the pIC50 on KRAS_WT and SOS1 is 5.22; on KRAS-G12D and SOS1 it was 7.62; at KRAS_G12D and cRAF, 6.89.
As for `CCN(C)CCCOc1nc(N2CC3CCC(C2)N3)c2cc(Cl)c(-c3cc(O)cc4ccccc34)c(F)c2n1` (single isomer, unassigned) [Compound 49a], the pIC50 is 5.77 at KRAS_WT and SOS1; 7.44 on KRAS-G12D and SOS1; 6.80 on KRAS_G12D and cRAF.
Consider `CC(C)N(C)CCCOc1nc(N2CC3CCC(C2)N3)c2cc(Cl)c(-c3cc(O)cc4ccccc34)c(F)c2n1` (single isomer, unassigned) [Compound 50a, 4-((S or R)-4-((1R,5S)-3,8-diazabicyclo[3.2.1]octan-3-yl)-6-chloro-8-fluoro-2-(3-(isopropyl(methyl)amino)propoxy)quinazolin-7-yl)naphthalen-2-ol trifluoroacetate], for which the pIC50 on KRAS_WT and SOS1 is 5.77; on KRAS-G12D and SOS1, 7.35; on KRAS_G12D and cRAF, 6.81.
Taken in the same sequence, the figures for `CCCN(C)CCCOc1nc(N2CC3CCC(C2)N3)c2cc(Cl)c(-c3cc(O)cc4ccccc34)c(F)c2n1` (single isomer, unassigned) [Compound 51a, 4-((S or R)-4-((1R,5S)-3,8-diazabicyclo[3.2.1]octan-3-yl)-6-chloro-8-fluoro-2-(3-(methyl(propyl)amino)propoxy)quinazolin-7-yl)naphthalen-2-ol carboxylate] were 5.85, 7.51 and 6.84.
Turning to `CN1CCN(c2nc(N3CC4CCC(C3)N4)c3cc(Cl)c(-c4cc(O)cc5ccccc45)c(F)c3n2)CC1` (single isomer, unassigned) [Compound 52a, 4-((S or R)-4-((1R,5S)-3,8-diazabicyclo[3.2.1]octan-3-yl)-6-chloro-8-fluoro-2-(4-methylpiperazin-1-yl)quinazolin-7-yl)naphthalen-2-ol], the pIC50 on KRAS_WT and SOS1 was 4.54; at KRAS-G12D and SOS1, 5.95; on KRAS_G12D and cRAF it was 5.04.
In the case of `CCN(CC)CCCOc1nc(N2CC3CCC(C2)N3)c2cc(Cl)c(-c3cc(O)cc4ccccc34)c(F)c2n1` (single isomer, unassigned) [Compound 53a, 4-((S or R)-4-((1R,5S)-3,8-diazabicyclo[3.2.1]octan-3-yl)-6-chloro-2-(3-(diethylamino)propoxy)-8-fluoroquinazolin-7-yl)naphthalen-2-ol], the pIC50 was 5.66 at KRAS_WT and SOS1; 7.22 at KRAS-G12D and SOS1; 6.83 at KRAS_G12D and cRAF.
As for `Oc1cc(-c2c(Cl)cc3c(N4CC5CCC(C4)N5)nc(OCCCN4CCOCC4)nc3c2F)c2ccccc2c1` (single isomer, unassigned) [Compound 54a, 4-((S or R)-4-((1R,5S)-3,8-diazabicyclo[3.2.1]octan-3-yl)-6-chloro-8-fluoro-2-(3-morpholinopropoxy)quinazolin-7-yl)naphthalen-2-ol], the pIC50 on KRAS_WT and SOS1 was 5.92; at KRAS-G12D and SOS1, 7.58; at KRAS_G12D and cRAF, 6.99.
Taken in the same sequence, the figures for `CN(C)CCCNc1nc(N2C[C@H]3CC[C@@H](C2)N3)c2cc(Cl)c(-c3cc(O)cc4ccccc34)c(F)c2n1` (single isomer, unassigned) [Compound 55a, (S or R) 4-(4-((1R,5S)-3,8-diazabicyclo[3.2.1]octan-3-yl)-6-chloro-2-((3-(dimethylamino)propyl)amino)-8-fluoroquinazolin-7-yl)naphthalen-2-ol] were under 4.00, 5.95 and 5.00.
